# Measured values: patent US20150166646A1, “Methods and Compositions for Treating or Diagnosing Melanoma” (The Wistar Institute of Anatomy and Biology, priority 2012, published 2015)
# Experiments:
# macrophages = assay: Macrophage growth (WST-1) and cell death; assay type: cell-based, human; conditions: 3 μM, 72 hours
# 1205Lu melanoma cells = assay: Matrigel Transwell invasion assay with 1205Lu-MΦ conditioned medium; assay type: cell-based, human; conditions: anti-CCL2 10 μg/ml
# Method: The invasion assay was conducted with 24-well Transwell inserts (8 μm pore size; Corning). For the MCMI-MΦ-induced invasion assay, 4×10^5 1205Lu melanoma cells in 2% FBS RPMI1640 medium were added in the upper chamber precoated with 50 μl Matrigel (1:3 dilution, BD Biosciences). Media from 1205Lu-MΦ were added to the lower chamber, and R10 medium was used as a control. After overnight incubation, cells that had invaded
# were fixed and stained with Diff-Quick staining kit (ThermoFisher). The stained cells in 4 randomly chosen fields were counted for each insert (200×). […]
# We used a Matrigel Transwell assay and compared invasion of melanoma cells attracted to the supernatant of 1205Lu-MΦ alone or the supernatant with an anti-CCL2 monoclonal antibody and a pan-MMPs inhibitor GM6001 (see FIG. 7; see also FIG. 4(A)-(E) of Reference 11).
# 1205Lu xenograft = 1205Lu xenograft tumor growth in nude mice; assay type: in vivo
# Method: 5×10^5 1205Lu cells were subcutaneously injected to Nude mice (Female, 8 weeks old).
# Tumor size was measured by a caliper. Tumor volume was calculated by the formula: Volume width×wide×length/2. The results are shown in the plot of FIG. 12A, plotting tumor volume vs. day.
# Tumors from the experiment described immediately above were extracted and weighted after mice were euthanized. Tumor weight in grams was plotted vs. control or an agent defined along the x axis of FIG. 22A.
# All studies were conducted under IACUC guidelines. 7 weeks old BALB/c female nude mice (National Cancer Institute) were injected subcutaneously with 1×10^61205Lu cells in 50% Matrigel (BD Biosciences) in both flanks of mice. When xenografts reached volumes of approximately 100 mm^3, mice were randomly grouped to four groups, with 5 animals per group. GW2580 was dissolved in 0.5% hydroxypropylmethylcellulose (Sigma-Aldrich, MO, USA) and 0.1% Tween 80, and was dosed orally at 160 mg/Kg once daily. […] Tumor volumes were measured every three days using a digital caliber and were calculated using the equation V=0.5×L×W^2. Mice tumors were weighted after mice were euthanized.
# 1205Lu cells were injected s.c into both flanks of nude mice. […] ANOVA was used to compare the differences in tumor volume. Mice were euthanized on day 14, peritoneal cells were harvested for flow cytometric analysis of the percent of F4/80 positive macrophages. Immunohistochemistry analysis of the expression of F4/80, phospho-ERK and Ki67 in tumors was conducted. The results are shown in FIGS. 12A-E. See, also the data in FIGS. 3B and 3C
# [1] = tested on: peritoneal F4/80 positive macrophages; assay: Flow cytometric analysis of peritoneal macrophages of treated xenograft mice; assay type: in vivo; conditions: day 14
# [2] = tested on: 1205Lu xenograft tumor tissues; assay: Immunohistochemistry of xenograft tumors (F4/80, phospho-ERK, Ki67); assay type: in vivo, mice; conditions: for Ki67 positive cells in tumor tissues / signaling of phospho-ERK in tumor tissues: compared to control mice; for F4/80 positive macrophages in tumors: day 14
# [3] = tested on: 1205Lu and A375 melanoma cells; assay: Melanoma cell growth (WST-1) and cell death (Annexin V/7-AAD), cells cultured alone; assay type: cell-based, human
# [4] = tested on: melanoma cells co-cultured with macrophages; assay: Melanoma/macrophage transwell co-culture: growth (WST-1) and cell death; assay type: cell-based, human; conditions: for macrophage-mediated resistance of melanoma cells to BRAFi (cell growth, anti-cell death effect): co-culture with macrophages in presence of PLX4720, 3 days
# 1205Lu [5] = assay: Western blot of 1205Lu cells treated with PLX4720, GW2580, soluble M-CSFR with or without MCMI-Mφ; assay type: cell-based, human; conditions: 10 μM, 3 days, without MCMI-Mφ
# [6] = tested on: MAPK pathway in macrophages; assay: Immunoblotting of MAPK signaling in macrophages; assay type: cell-based, human; conditions: 2 hours; accompanied by phosphorylation of CRAF
# Method: For macrophages, after monocytes were differentiated to the macrophages, cells in 2% FBS melanoma media were seeded into 15 ml tubes. […] Immunoblotting were performed as described previously. The following antibodies were used: anti-phospho-ERK, ERK, Phospho-VEGFR1, phospho-CRAF, CRAF, PCNA, HSP90 and Rab11.
# Cells were harvested for immunoblotting of antibodies to pERK (short expression), pERK, ERK, pCRAF (S338), CRAF, and Rab11 as shown in FIG. 11A. An ELISA assay was performed to determine the activation of RAS in 3 macrophage donors and the melanoma cells A375 and 1205Lu. As see in FIG. 11B, macrophages have high basal level of RAS activation.
# 1205Lu [7] = assay: Western blot for cPARP in 1205Lu cells; assay type: cell-based, human; conditions: PLX4720 1, 3, 10 μM, 2 days, with or without macrophages
# [8] = tested on: VEGF production in macrophages; assay: Intracellular staining for VEGF production in macrophages; conditions: 4 hours
# [9] = tested on: MAPK pathway (pERK) in melanoma cells; assay: Immunoblotting of MAPK signaling in melanoma cells; assay type: cell-based, human; conditions: VEGF 10 ng/ml and PLX4720 1 μM, 4 hours
# Method: Macrophages and melanoma co-culture system was set up as described above. Melanoma cells were cultured same as Proliferation assay for 6 hours and were harvested for Immmunoblotting with following antibodies: phspho-ERK, total ERK, HSP90, phosphor-AKT, AKT, phosphor-NF-κB, phospho-CRAF, total CRAF, Phospho-ARAF, RAB11, Vinculin.
# Cells were harvested for immunoblotting with antibodies to pERK, ERK, HSP90. VEGF increases the activation of MAPK pathway (FIG. 10C).
# Relative cell growth and cell death were determined as above.
compound,measurement,setting,value
CC(C)(C)c1nc(-c2cccc(NS(=O)(=O)c3c(F)cccc3F)c2F)c(-c2ccnc(N)n2)s1 [Dabrafenib],macrophage apoptosis / cell death,macrophages,protects macrophage from cell death
CNC(=O)[C@H](Cc1c[nH]c2ccccc12)NC(=O)[C@@H](CC(=O)NO)CC(C)C [GM6001],1205Lu-MΦ supernatant induced melanoma invasion,"1205Lu melanoma cells; GM6001 10 μM, Matrigel Transwell",did not have a significant effect
same,melanoma cell invasion (FIG. 7),"1205Lu melanoma cells; MMPi 5 μM, 18 h, 1205Lu-MΦ CM",marginally increased melanoma cell invasion
"COc1ccc(COc2ccc(Cc3cnc(N)nc3N)cc2OC)cc1 [GW2580, 5-(3-methoxy-40((4-methoxybenzyl)oxy)benzyl)pyrimidine-2,4-diamine]",efficacy compared with PLX4720 alone,"1205Lu xenograft; 14 days, GW2580 160 mg/kg vs PLX4720",less efficacious than PLX4720
same,tumor size / tumor growth,"1205Lu xenograft; after 14 days of oral treatment, GW2580 160 mg/kg, PLX4720 30 mg/ml as printed",significantly decreased tumor size
same,effect on anti-tumor activity of PLX4720 on 1205Lu xenograft tumor growth (FIG. 12A),"1205Lu xenograft; oral, 14 days",increases anti-tumor activity of PLX4720
same,numbers of peritoneal F4/80 positive macrophages,[1],significant decrease
same,Ki67 positive cells in tumor tissues,[2],fewer
same,signaling of phospho-ERK in tumor tissues,[2],decreased signaling
same,F4/80 positive macrophages in tumors,[2],abolished
same,melanoma growth and death in vitro,"[3]; GW2580 alone, 72 hours",did not have significant effects
same,"macrophage-mediated resistance of melanoma cells to BRAFi (cell growth, anti-cell death effect)",[4],can reverse macrophage-mediated resistance
same,"expression of pERK, pAKT, pS6, pRSK90 (Western blot)",1205Lu [5],all blots appear similar to col. 4
COc1cc2nccc(Oc3ccc(NC(=O)NC4CC4)c(Cl)c3)c2cc1C(N)=O [Lenbatinib],"macrophage-mediated resistance of melanoma cells to BRAFi (cell growth, anti-cell death effect)",[4],reverse macrophage-mediated resistance
CCCS(=O)(=O)Nc1ccc(F)c(C(=O)c2c[nH]c3ncc(Cl)cc23)c1F [PLX4720],numbers of peritoneal F4/80 positive macrophages,[1],amplified this effect
same,Ki67 positive cells in tumor tissues,[2],fewer
same,signaling of phospho-ERK in tumor tissues,[2],decreased signaling
same,F4/80 positive macrophages in tumors,[2],significant decrease
same,BRAFi-induced growth inhibition and cell death of melanoma cells when co-cultured with macrophages,"[4]; 0-10 μM, 3 days, 1205Lu, A375, SK-MEL-28, 451Lu",significantly protected from PLX4720-induced growth inhibition and cell death
same,macrophage apoptosis / cell death,macrophages,protects macrophage from apoptosis
same,MAPK signaling in macrophages,[6],strongly activated
same,cPARP gel (Western blot),1205Lu [7],showed a second blot
same,production of VEGF in macrophages,[8],significantly increased
VEGF,rescue of PLX4720-induced cell growth inhibition,"[3]; VEGF 10 ng/ml with PLX4720, 3 days",rescued PLX4720-induced cell growth inhibition
same,MAPK pathway in melanoma cells,[9],activated the MAPK pathway
m-CSFR: soluble M-CSFR,"expression of pERK, pAKT, pS6, pRSK90 (Western blot)",1205Lu [5],no change from control
